Results on nine molecules are retold here after PubChem BioAssay (NCI).

Among the test systems are EKVX NSCLC; COLO 205 colon; NCI/ADR-RES ovarian; UO-31 renal; NCI-H226 lung; SF-539 CNS; UACC-62 melanoma; NCI-H460 lung; HCC-2998 colon; K-562 leukemia; TK-10 renal; RPMI-8226 leukemia; UACC-257 melanoma; DU-145 prostate; IGROV1 ovarian; NCI-H23 lung; SNB-75 CNS.
What all share (assay): growth of human tumour cells (NCI), 48 h

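Five concentrations, 48 hours, 96-well plates. Definition used: TGI = concentration required for complete inhibition of growth.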

Consider `N#Cc1sc2c(c1OC(=O)c1ccccc1)c(=O)n(-c1ccccc1)c(=S)n2-c1ccccc1`, for which the TGI in the experiment with EKVX NSCLC worked out at 68.6 µM; in the experiment with COLO 205 colon it was 34.2 µM; in the experiment with NCI/ADR-RES ovarian, 49.3 µM; in the experiment with UO-31 renal, 35.6 µM; in the experiment with NCI-H226 lung, 40.8 µM; in the experiment on SF-539 CNS, 47.8 µM. Also, the TGI was 40.9 µM in the experiment on UACC-62 melanoma; above 100 µM in the experiment with NCI-H460 lung; 68.9 µM in the experiment with HCC-2998 colon; above 100 µM in the experiment with K-562 leukemia; above 100 µM with TK-10 renal; 66.5 µM in the experiment on RPMI-8226 leukemia. Also, the TGI was above 100 µM in the experiment with UACC-257 melanoma, above 100 µM in the experiment with DU-145 prostate, 45.7 µM in the experiment with IGROV1 ovarian and 58.9 µM with NCI-H23 lung.

Take `CC(=O)c1ccc2c(c1)CC1(C2)Cc2cc3c(cc2C1=O)CCC3` (configuration not stated): the TGI in the experiment with EKVX NSCLC came out at 64.8 µM; in the experiment with COLO 205 colon, 31.2 µM; in the experiment with SNB-75 CNS, 41.2 µM; with NCI/ADR-RES ovarian it was 39.4 µM; in the experiment with UO-31 renal, 63.5 µM; in the experiment with SF-539 CNS it was 72.4 µM. Further, the TGI is 76.3 µM in the experiment with NCI-H460 lung; 68.4 µM in the experiment with HCC-2998 colon; above 100 µM with K-562 leukemia; 71.3 µM in the experiment on TK-10 renal; 35.2 µM with RPMI-8226 leukemia; 30.2 µM in the experiment on UACC-257 melanoma. Besides, the TGI worked out at 61.9 µM in the experiment with DU-145 prostate, 59 µM with IGROV1 ovarian and 89.1 µM in the experiment on NCI-H23 lung.

As to `C/C(=N\Nc1ccc([N+](=O)[O-])cc1[N+](=O)[O-])c1sc(-n2nc(-c3ccccc3)cc2-c2ccccc2)nc1C`, the TGI in the experiment with EKVX NSCLC is above 100 µM; with COLO 205 colon it was 67.4 µM; with SNB-75 CNS, above 100 µM; in the experiment on NCI/ADR-RES ovarian, 69.8 µM; with UO-31 renal, above 100 µM; in the experiment on NCI-H226 lung it was above 100 µM. Besides, the TGI was above 100 µM in the experiment with SF-539 CNS; above 100 µM in the experiment with UACC-62 melanoma; above 100 µM in the experiment with NCI-H460 lung; above 100 µM with HCC-2998 colon; above 100 µM in the experiment with TK-10 renal; 41.4 µM in the experiment with RPMI-8226 leukemia. Also, the TGI was 84.7 µM in the experiment with UACC-257 melanoma, above 100 µM in the experiment with DU-145 prostate, above 100 µM in the experiment on IGROV1 ovarian and above 100 µM in the experiment on NCI-H23 lung.

Consider `CCN1CCC(C)OP1(=O)Cc1ccccc1` (configuration not stated), for which the TGI in the experiment with EKVX NSCLC, in the experiment on COLO 205 colon, with NCI/ADR-RES ovarian, in the experiment on UO-31 renal, in the experiment on NCI-H226 lung and in the experiment on SF-539 CNS was above 100 µM in each case. For the same molecule, the TGI with UACC-62 melanoma, in the experiment on NCI-H460 lung, with HCC-2998 colon, in the experiment with K-562 leukemia, in the experiment with TK-10 renal and in the experiment on RPMI-8226 leukemia was above 100 µM throughout. For the same molecule, the TGI in the experiment with UACC-257 melanoma, with DU-145 prostate, in the experiment with IGROV1 ovarian and with NCI-H23 lung was above 100 µM in each case.

On to `COc1cc(C2SCC(=O)N2c2cccc(Cl)c2)cc(OC)c1OC` (configuration not stated), for which the TGI with EKVX NSCLC, in the experiment on COLO 205 colon, in the experiment with NCI/ADR-RES ovarian, in the experiment on UO-31 renal, in the experiment on NCI-H226 lung and with SF-539 CNS was above 100 µM in each case. Besides, the TGI in the experiment with UACC-62 melanoma is 54.3 µM; with NCI-H460 lung, above 100 µM; in the experiment with HCC-2998 colon, above 100 µM; in the experiment with K-562 leukemia, above 100 µM; with TK-10 renal, above 100 µM; in the experiment on RPMI-8226 leukemia, above 100 µM. Moreover, the TGI in the experiment with UACC-257 melanoma, in the experiment on DU-145 prostate, in the experiment with IGROV1 ovarian and with NCI-H23 lung was above 100 µM in each case.

Take `NC(N)=NCC[C@H](NC(=O)OCCCCCn1ccc(=O)[nH]c1=O)C(=O)O`: the TGI in the experiment on EKVX NSCLC, in the experiment on COLO 205 colon, with SNB-75 CNS, with NCI/ADR-RES ovarian, with UO-31 renal and in the experiment with NCI-H226 lung was above 100 µM in each case. The TGI with SF-539 CNS, with UACC-62 melanoma, in the experiment with NCI-H460 lung, with HCC-2998 colon, in the experiment on K-562 leukemia and in the experiment on TK-10 renal was above 100 µM each time. The TGI in the experiment on RPMI-8226 leukemia, in the experiment with UACC-257 melanoma, in the experiment on DU-145 prostate and with NCI-H23 lung was above 100 µM each time.

Regarding `CCOC(=O)C1C(c2ccc3c(c2)OCO3)c2c([nH][nH]c2=O)CC1(C)O` (configuration not stated), the TGI in the experiment with EKVX NSCLC, in the experiment on COLO 205 colon, with SNB-75 CNS, with NCI/ADR-RES ovarian, with UO-31 renal and with SF-539 CNS was above 100 µM in each case. In addition, the TGI in the experiment with UACC-62 melanoma, with NCI-H460 lung, with HCC-2998 colon, in the experiment on TK-10 renal, with RPMI-8226 leukemia and in the experiment with UACC-257 melanoma was above 100 µM each time. In addition, the TGI with DU-145 prostate, in the experiment on IGROV1 ovarian and in the experiment with NCI-H23 lung was above 100 µM in each case.

As to `CCN(CC)CC1CCCCN1CC(=O)N1c2ccccc2C(=O)Nc2cccnc21` (configuration not stated), the TGI with EKVX NSCLC was above 100 µM; in the experiment on COLO 205 colon, 64.6 µM; in the experiment with SNB-75 CNS, above 100 µM; in the experiment with NCI/ADR-RES ovarian it was 67.5 µM; in the experiment on UO-31 renal, 4.96 µM; with NCI-H226 lung, 98.8 µM. For the same molecule, the TGI is above 100 µM in the experiment on SF-539 CNS; above 100 µM in the experiment with UACC-62 melanoma; above 100 µM in the experiment with NCI-H460 lung; above 100 µM with HCC-2998 colon; above 100 µM with TK-10 renal; 74.2 µM in the experiment on RPMI-8226 leukemia. Moreover, the TGI in the experiment with UACC-257 melanoma was 75.2 µM; with DU-145 prostate, above 100 µM; in the experiment with IGROV1 ovarian it was above 100 µM; in the experiment on NCI-H23 lung it was above 100 µM.

Take `C=CCC1(OCc2ccccc2)C(=O)C(=O)OC1C1COC(C)(C)O1` (configuration not stated): the TGI in the experiment with EKVX NSCLC, with COLO 205 colon, in the experiment with SNB-75 CNS, in the experiment with NCI/ADR-RES ovarian, in the experiment on UO-31 renal and in the experiment with NCI-H226 lung was above 100 µM each time. Further, the TGI in the experiment on SF-539 CNS, in the experiment with UACC-62 melanoma, in the experiment on NCI-H460 lung, in the experiment on HCC-2998 colon, in the experiment on K-562 leukemia and in the experiment with TK-10 renal was above 100 µM throughout. The TGI with RPMI-8226 leukemia, in the experiment with UACC-257 melanoma, with DU-145 prostate and with NCI-H23 lung was above 100 µM each time.
